Structures can show the parent of a compound that is named as a salt.
How the values were obtained:
[1] = test system: superoxide dysmutase, catalase and glutathione peroxidase; conditions: background statement (Jenner, et al.); cited from earlier work
[2] = test system: second-degree burn wounds; test: second-degree burn wound model, epidermal migration (epithelization) assessment; type: in vivo, Swine; conditions: for Percent of wounds completely epithelized / number of wounds healed (completely epithelized) over the number of wounds assessed: pig
Experimental: The ability of selegiline and desmethylselegiline to assist in the healing of burns was tested using a second-degree burn wound model. In second-degree burns, the entire surface of the epidermis is destroyed. An epidermal covering is regenerated from the remaining epithelial and epidermal cells adjacent to the burns. This phase of the healing process is called epithelization.
Swine were used for the experimental research animal because their skin has many morphological similarities to human skin. Seven young female specific pathogen free (SPF:Ken-O-Kaw Farms, Windsor, Ill.) pigs weighing 25-30 kg were kept in house for two weeks prior to initiating the experiment. These animals were fed a basal diet ad libitum and housed individually in facilities with controlled temperature (19-21° C.) and lights (12 h/12 h LD).
Experimental animals were clipped with standard animal clippers on the day of the experiment. The skin on the back and both sides of the animal was prepared for wounding by washing with a non-antibiotic soap and sterile water. Each animal was anesthetized i.m. with ketamine-HCl (20 mg/kg), xylazine (2 mg/kg) and atropine (0.05 mg/kg), followed by mask inhalation of an isoflurane and oxygen combination. Five specifically designed cylindrical brass rods weighing 358 g each were heated in a boiling water bath to 100° C. A rod was removed from the water bath and wiped dry before being applied to the skin surface to prevent water droplets from creating a steam burn on the skin. The brass rod was held at a vertical position on the skin for six seconds with all pressure being supplied by gravity in order to make a burn 8.5 mm diameter×0.8 mm deep. Immediately after burning, the roof of the burn blister was removed with a sterile spatula. The burn wounds were made approximately 2 cm from each other.
Approximately 90 burn wounds were made on the anterior two-thirds of the animal. The posterior third of the animal cannot be used because of anatomical differences in burn wound healing (a more rapid healing of burns has been observed at that position).
A total of seven animals were used and a total of fifteen wounds per treatment group were analyzed on each of days 7-12 after wounding. Treatments were coded to maintain blind study compliance. The burn wounds were treated with 25 ug of test article (enough to cover each wound). Treatments were allowed to penetrate into the sites for at least a 20 minute time period. Each treatment was applied within 20 minutes of blister removal and treatment occurred once a day for the first five days.
Beginning on day seven after wounding (day 0) and each day thereafter for four to six days, five burn wounds and the surrounding normal skin from each treatment area were excised using an electrokeratome. Any specimens that were not excised intact were discarded. The excised wounds and the surrounding normal skin were incubated in 0.5 M NaBr for 24 hours at 37° C. After incubation, the specimens were separated into epidermal and dermal sheets. The epidermis was examined macroscopically for defects in the area of the burn wounds. Epithelization was considered complete if no defect was present (healed). […] The epidermal sheet was placed on cardboard for a permanent record.
The number of wounds healed (completely epithelized) were divided by the total number of wounds sampled per day and multiplied by 100.

[3] = 10^-4M topical, day 7 after burning
[4] = 10^-4M topical, day 8 after burning
[5] = 10^-4M topical, day 9 after burning
[6] = 10^-4M topical, day 10 after burning
[7] = 10^-4M topical, day 11 after burning
[8] = 10^-4M topical, day 12 after burning
[9] = 10^-4M topical, day 13 after burning
[10] = 10^-6M topical, day 7 after burning
[11] = 10^-6M topical, day 8 after burning
[12] = 10^-6M topical, day 9 after burning
[13] = 10^-6M topical, day 10 after burning
[14] = 10^-6M topical, day 11 after burning
[15] = 10^-6M topical, day 12 after burning
[16] = 10^-6M topical, day 13 after burning
[17] = 10^-8M topical, day 7 after burning
[18] = 10^-8M topical, day 8 after burning
[19] = 10^-8M topical, day 9 after burning
[20] = 10^-8M topical, day 10 after burning
[21] = 10^-8M topical, day 11 after burning
[22] = 10^-8M topical, day 12 after burning
[23] = 10^-8M topical, day 13 after burning

## C#CCN(C)[C@H](C)Cc1ccccc1 [selegiline HCl, selegiline]
[1]
  activity of the endogenous anti-oxidants superoxide dysmutase, catalase and glutathione peroxidase: increase the activity
[2]; 10^-4 M and 10^-6 M
  initiation of epithelization compared with other treatment groups: earlier time point than all other treatment groups
[2]; [3]
  Percent of wounds completely epithelized: (0%)
  number of wounds healed (completely epithelized) over the number of wounds assessed:  0/15
[2]; [4]
  Percent of wounds completely epithelized: (0%)
  number of wounds healed (completely epithelized) over the number of wounds assessed:  0/15
[2]; [5]
  Percent of wounds completely epithelized: (0%)
  number of wounds healed (completely epithelized) over the number of wounds assessed:  0/15
[2]; [6]
  Percent of wounds completely epithelized: 20%
  number of wounds healed (completely epithelized) over the number of wounds assessed:  3/15
[2]; 10^-4M topical, day 10 after burning, listed as A-1
  Percent of wounds completely epithelized: (20%)
[2]; [7]
  Percent of wounds completely epithelized: 33%
  number of wounds healed (completely epithelized) over the number of wounds assessed:  5/15
[2]; 10^-4M topical, day 11 after burning, listed as A-1
  Percent of wounds completely epithelized: (33%)
[2]; [8]
  Percent of wounds completely epithelized: 33%
  number of wounds healed (completely epithelized) over the number of wounds assessed:  6/15
[2]; 10^-4M topical, day 12 after burning, listed as A-1
  Percent of wounds completely epithelized: (40%)
[2]; [9]
  Percent of wounds completely epithelized: 33%
  number of wounds healed (completely epithelized) over the number of wounds assessed:  6/15
[2]; 10^-4M topical, day 13 after burning, listed as A-1
  Percent of wounds completely epithelized: (40%)
[2]; [10]
  Percent of wounds completely epithelized: (0%)
  number of wounds healed (completely epithelized) over the number of wounds assessed:  0/15
[2]; [11]
  Percent of wounds completely epithelized: (0%)
  number of wounds healed (completely epithelized) over the number of wounds assessed:  0/15
[2]; [12]
  Percent of wounds completely epithelized: (0%)
  number of wounds healed (completely epithelized) over the number of wounds assessed:  0/15
[2]; [13]
  Percent of wounds completely epithelized: 20%
  number of wounds healed (completely epithelized) over the number of wounds assessed:  3/15
[2]; 10^-6M topical, day 10 after burning, listed as A-2
  Percent of wounds completely epithelized: (20%)
[2]; [14]
  Percent of wounds completely epithelized: 33%
  number of wounds healed (completely epithelized) over the number of wounds assessed:  5/15
[2]; 10^-6M topical, day 11 after burning, listed as A-2
  Percent of wounds completely epithelized: (33%)
[2]; [15]
  Percent of wounds completely epithelized: 40%
  number of wounds healed (completely epithelized) over the number of wounds assessed:  6/15
[2]; 10^-6M topical, day 12 after burning, listed as A-2
  Percent of wounds completely epithelized: (40%)
[2]; [16]
  Percent of wounds completely epithelized: 40%
  number of wounds healed (completely epithelized) over the number of wounds assessed:  6/15
[2]; 10^-6M topical, day 13 after burning, listed as A-2
  Percent of wounds completely epithelized: (40%)
[2]; [17]
  Percent of wounds completely epithelized: (0%)
  number of wounds healed (completely epithelized) over the number of wounds assessed:  0/15
[2]; [18]
  Percent of wounds completely epithelized: (0%)
  number of wounds healed (completely epithelized) over the number of wounds assessed:  0/15
[2]; [19]
  Percent of wounds completely epithelized: (0%)
  number of wounds healed (completely epithelized) over the number of wounds assessed:  0/15
[2]; [20]
  Percent of wounds completely epithelized: (0%)
  number of wounds healed (completely epithelized) over the number of wounds assessed:  0/15
[2]; [21]
  Percent of wounds completely epithelized: None
  number of wounds healed (completely epithelized) over the number of wounds assessed:  0/15
[2]; 10^-8M topical, day 11 after burning, listed as A-3
  Percent of wounds completely epithelized: (0%)
[2]; [22]
  Percent of wounds completely epithelized: 7%
  number of wounds healed (completely epithelized) over the number of wounds assessed:  1/15
[2]; 10^-8M topical, day 12 after burning, listed as A-3
  Percent of wounds completely epithelized: (7%)
[2]; [23]
  Percent of wounds completely epithelized: Thirty-eight
  number of wounds healed (completely epithelized) over the number of wounds assessed:  6/16
[2]; 10^-8M topical, day 13 after burning, listed as A-3
  Percent of wounds completely epithelized: (38%)
[2]; first three days of treatment, normal again after 15 minutes
  wound crust colour during absorption of applied agent: more pronounced

Source: US6461619B1 (Somerset Pharmaceuticals, Inc., priority 1998, dated 2002)
